According to patent US8569229B2, “Compositions and methods which modulate G-protein signaling for the treatment of inflammatory disorders such as asthma and allergic conjunctivitis” (The Children's Hospital of Philadelphia, priority 2008, dated 2013):
Entries after “also recorded” stand apart in the source; their conditions may differ. Ends that are not written are not given here.

What was measured:
OVA-sensitized rabbits [1] = assay: IL-13 and IFN-γ in BALF samples of OVA-sensitized, OVA-challenged rabbits; type: in vivo, rabbit; settings: pretreated OVA-sensitized+OVA challenged rabbits
Experimental: (§1) In vivo studies were conducted wherein adult NZW rabbits were initially sensitized with weekly intra-peritoneal (i.p.) injections of 2.5 mg OVA and 10 mg of alum adjuvant for 4-5 weeks, and non-sensitized (control) rabbits received alum alone. Both the OVA sensitized and control animals were then challenged with either vehicle (saline) or aerosolized OVA delivered via a nebulizer. The following day, while mechanically ventilated under general anesthesia/paralysis, the rabbits' broncho-constrictor responses to intravenous (i.v.) bolus injections of cumulatively increasing doses of methacholine (MCh) were determined and induced changes in respiratory system resistance (Rrs), measured as previously described (Grunstein et al. J. Appl. Physiol: Respirat. Environ. Exercise Physiol. 57:1238-1246, 1984). Lung lavage was then performed to obtain bronchoalveolar lavage fluid (BALF) samples, and the lungs were excised for histological examination in H&E-stained paraffin-embedded 4 micron sections.

OVA-sensitized rabbits [2] = assay: Lung histopathology in OVA-sensitized, OVA-challenged rabbits; type: in vivo, rabbit; settings: pretreated OVA-sensitized+OVA challenged rabbits
Experimental: as §1, with “Both” for “In vivo studies were conducted wherein adult NZW rabbits were initially sensitized with weekly intra-peritoneal (i.p.) injections of 2.5 mg OVA and 10 mg of alum adjuvant for 4-5 weeks, and non-sensitized (control) rabbits received alum alone. Both”, “[…].” for “Respirat.”

human ASM cells = assay: Assay of cAMP PDE activity in ASM cell lysates; type: cell-based; settings: for effect of pretreatment on PGE2-induced increase in PDE activity: PGE2 100 nM x 24 hr, peptides 30 μM (Example III)

Substance: MPS-Phosducin-like protein C terminus (AAVALLPAVLLALLAVTDQLGEDFFAVDLEAFLQEFGLLPEKE; also: MPS attached) [anti-Gβγ peptide]
- effect on OVA challenge-induced decrease in BALF IFN-γ (OVA-sensitized rabbits [1]): prevents
- effect on OVA challenge-induced increase in BALF IL-13 (OVA-sensitized rabbits [1]): prevents
- effect on pulmonary inflammatory response (peribronchial and parenchymal inflammatory cell infiltration) (OVA-sensitized rabbits [2]): markedly suppressed to a similar extent; also recorded: markedly suppresses
- effect of pretreatment on PGE2-induced increase in PDE activity (human ASM cells; listed as Gβγ inhibitory peptide): completely ablated
- effect of pretreatment on PGE2-induced increase in PDE activity (human ASM cells; listed as anti-Gβγ cell-permeable inhibitory peptide): completely abrogated
- effect of pretreatment on salmeterol- and isoproterenol-induced increase in PDE activity (human ASM cells; salmeterol or isoproterenol 10 μM x 24 hr): completely abrogated; also recorded: ablated
